One block for each compound: values may come before it.
Tests used:
VAB-ΔPSAP-GFP (human) = assay: co-IP; GFP-Trap agarose beads (ChromoTek) on lysates of HEK293 cells, by the manufacturer's protocol; GFP-tagged protein held, partner detected by western blot (anti-TSG101 or anti-Halo); 5% input
VPS13D-LTD [1] = target: T1, VPS13D-LTD (Homo sapiens, UniProt Q5THJ4); assay: native PAGE co-migration, fluorescence; format: binding; conditions: labelled compound; 4 °C, 3 h; 1.5 mg/ml protein
T1 construct: lipid transfer domain, residues 1-320; pET28a-6xHis-SUMO fusion, tag cleavage not mentioned; expressed in E. coli (DE3), Ni-NTA purified
T1 sequence (Q5THJ4 1-320): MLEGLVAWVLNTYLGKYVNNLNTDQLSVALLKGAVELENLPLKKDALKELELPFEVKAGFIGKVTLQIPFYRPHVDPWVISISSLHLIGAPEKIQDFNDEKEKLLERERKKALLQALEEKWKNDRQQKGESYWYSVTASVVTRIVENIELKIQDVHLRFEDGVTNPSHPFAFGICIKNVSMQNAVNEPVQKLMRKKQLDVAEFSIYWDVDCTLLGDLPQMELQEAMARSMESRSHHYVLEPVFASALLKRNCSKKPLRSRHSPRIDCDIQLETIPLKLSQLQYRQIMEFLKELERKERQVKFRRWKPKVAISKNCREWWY

VPS13D-LTD [2] = target: T1, VPS13D-LTD; assay: competition with BODIPY-C16, native PAGE; format: binding; conditions: unlabeled, non-BSA-conjugated palmitic acid; competitor of BODIPY-C16

reduction of the interaction against VAB-GFP (VAB-ΔPSAP-GFP (human)): 60%
Compound: Halo-TSG101 (from UniProt Q99816 1-390) (natural protein)

Compound: O=C(O)CCCCCCCCCCCNc1ccc([N+](=O)[O-])c2nonc12 [C12, NBD-C12]
native PAGE co-migration, fluorescence (VPS13D-LTD [1]): purified VPS13D-LTD could bind NBD-labeled fatty acids C12 (NBD-C12)

Compound: CCCCCCCCCCCCCCCC(=O)O [palmitic acid]
competition with BODIPY-C16, native PAGE (VPS13D-LTD [2]): palmitic acid, but not OA, could sufficiently outcompete BODIPY-C16 for binding to VPS13D-LTD

From article PMC7902631, “An ESCRT-dependent step in fatty acid transfer from lipid droplets to mitochondria through VPS13D−TSG101 interactions” (Nature Communications, 2021)
